Patent US12404304B1, “Telomerase reverse transcriptase (TERT) expression enhancing compounds and methods for using the same” (Sierra Sciences, LLC, priority 2007, dated 2025)

How the values were obtained:
[1] = tested on: viable cells in culture; assay: Cell viability assay (CellTiter-Glo Luminescent Cell Viability Assay, ATP quantitation, percent of vehicle control)
Procedure: Cell viability is determined using a homogeneous method, such as CellTiter-Glo® Luminescent Cell Viability Assay (Promega Corporation, Madison, WI.) to determine the number of viable cells in culture These assays are based on quantitation of the ATP present, which signals the presence of metabolically active cells. Luminescent values of compound treated cells are compared to that of cells treated with vehicle alone to determine the average cell viability as a percent of control.

[2] = tested on: human TERT expression (hTERT mRNA); assay: Quantitative real-time RT-PCR of hTERT mRNA expression (Ct, transcripts) in compound-treated cells; assay type: cell-based; settings: quantitative real-time RT-PCR
From the text: Telomerase is a ribonucleoprotein complex composed of the catalytic protein subunit (human telomerase reverse transcriptase or hTERT) and the RNA template. hTERT expression level can be measured by PCR.
Briefly, amplification of the target sequence is monitored per PCR cycle by detecting the fluorescence signal emitted by an internal probe that is degraded by the 5′ nuclease activity of the Taq polymerase. The emission signal accumulates in each sample, and the Ct required to reach a given fluorescence threshold is determined (Ct stands for Cycle Threshold and is a measure of the number of PCR cycles that are required to amplify a target—thus, a lower Ct score means that there is more abundant hTERT mRNA). Thus, the Ct value of a sample inversely correlates to the quantity of the starting cDNA which correlates to the number of mRNA transcripts. Using the cDNA of known quantity, a standard curve can be generated and used to determine the starting amount of mRNA transcripts based on the […] of each sample.
Quantitative real-time PCR can be done on cDNA from test compound-treated and nontreated cells by use of a ABI Prism 7900 Sequence Detection System (PE Applied Biosystems, Foster City, CA) following the Assays-on-Demand protocol (PE Applied Biosystems, Foster City, CA). Quantitative data can be analyzed using the Sequence Detection System software version 2.1 (PE Applied Biosystems).
The following compounds were tested in assays designed to identify compounds that enhance human TERT expression.

CCCC(=O)NC(c1ccc(SC)cc1)c1ccc2cccnc2c1O (stereo not shown) [compound 1010]
Average Cell Viability after 24 Hours (% DMSO) [1]: 86.63 % DMSO
Average Number of hTERT Transcripts [2]: 35.70

COc1cc(NS(=O)(=O)c2cc(Cl)ccc2Cl)c2ncccc2c1 [compound 1026]
Average Cell Viability after 24 Hours (% DMSO) [1]: 52.03 % DMSO
Average Number of hTERT Transcripts [2]: 11.55

CC(=O)NC(c1ccc(N(C)C)cc1)c1cc(Cl)c2cccnc2c1O (stereo not shown) [compound 1059]
Average Cell Viability after 24 Hours (% DMSO) [1]: 53.52 % DMSO
Average Number of hTERT Transcripts [2]: 26.79

COc1ccc(C(NC(=O)CC(C)C)c2ccc3cccnc3c2O)cc1OC (stereo not shown) [compound 1076]
Average Cell Viability after 24 Hours (% DMSO) [1]: 62.85 % DMSO
Average Number of hTERT Transcripts [2]: 61.45

Cc1cn(-c2ccc3c(Cl)cc(Cl)c(O)c3n2)nc1C [compound 1079]
Average Cell Viability after 24 Hours (% DMSO) [1]: 71.22 % DMSO
Average Number of hTERT Transcripts [2]: 98.36

Cc1ccnc(NC(c2cccc(Cl)c2)c2ccc3ccc(C)nc3c2O)c1 (stereo not shown) [compound 1080]
Average Cell Viability after 24 Hours (% DMSO) [1]: 72.44 % DMSO

Cc1ccnc(NC(c2ccc([N+](=O)[O-])cc2)c2ccc3ccc(C)nc3c2O)c1 (stereo not shown) [compound 1081]
Average Cell Viability after 24 Hours (% DMSO) [1]: 70.69 % DMSO
Average Number of hTERT Transcripts [2]: 18.87

Oc1c(C(Nc2ccccn2)c2ccc(Cl)c(Cl)c2)ccc2cccnc12 (stereo not shown) [compound 1082]
Average Cell Viability after 24 Hours (% DMSO) [1]: 56.92 % DMSO

Cc1ccnc(NC(c2cccc(Br)c2)c2ccc3ccc(C)nc3c2O)c1 (stereo not shown) [compound 1083]
Average Cell Viability after 24 Hours (% DMSO) [1]: 74.39 % DMSO

Cc1ccnc(NC(c2cccc([N+](=O)[O-])c2)c2ccc3ccc(C)nc3c2O)c1 (stereo not shown) [compound 1084]
Average Cell Viability after 24 Hours (% DMSO) [1]: 65.08 % DMSO
Average Number of hTERT Transcripts [2]: 11.54

Oc1c(CN2CCN(Cc3ccc4cccnc4c3O)CC2)ccc2cccnc12 [compound 1085]
Average Cell Viability after 24 Hours (% DMSO) [1]: 61.83 % DMSO
Average Number of hTERT Transcripts [2]: 59.41

O=C(NC(c1ccccc1)c1ccc2cccnc2c1O)c1ccccc1 (stereo not shown) [compound 1086]
Average Cell Viability after 24 Hours (% DMSO) [1]: 56.53 % DMSO

CC(C)C(=O)NC(c1ccco1)c1ccc2cccnc2c1O (stereo not shown) [compound 1087]
Average Cell Viability after 24 Hours (% DMSO) [1]: 72.33 % DMSO

Cc1ccc(C(NC(=O)C(C)C)c2ccc3cccnc3c2O)cc1 (stereo not shown) [compound 1088]
Average Cell Viability after 24 Hours (% DMSO) [1]: 55.87 % DMSO

CCN1CCN(Cc2ccc3cccnc3c2O)CC1 [compound 1089]
Average Cell Viability after 24 Hours (% DMSO) [1]: 89.98 % DMSO

CC(C)C(=O)NC(c1cccs1)c1cc(Cl)c2cccnc2c1O (stereo not shown) [compound 1090]
Average Cell Viability after 24 Hours (% DMSO) [1]: 27.89 % DMSO
Average Number of hTERT Transcripts [2]: 29.08

Cc1ccc(S(=O)(=O)Nc2ccc(O)c3ncccc23)cc1 [compound 1091]
Average Cell Viability after 24 Hours (% DMSO) [1]: 94.30 % DMSO

Cc1ccc(S(=O)(=O)Nc2cc(Cl)c(O)c3ncccc23)cc1 [compound 1092]
Average Cell Viability after 24 Hours (% DMSO) [1]: 66.43 % DMSO

Cc1ccc(S(=O)(=O)Nc2cc(S(=O)(=O)c3ccc(C)cc3)c(O)c3ncccc23)cc1 [compound 1093]
Average Cell Viability after 24 Hours (% DMSO) [1]: 66.50 % DMSO

Oc1c(C(Nc2ccccn2)c2ccccc2Cl)ccc2cccnc12 (stereo not shown) [compound 1094]
Average Cell Viability after 24 Hours (% DMSO) [1]: 56.64 % DMSO
Average Number of hTERT Transcripts [2]: 32.08

Oc1c(C(Nc2ccccc2Cl)c2ccccn2)ccc2cccnc12 (stereo not shown) [compound 1095]
Average Cell Viability after 24 Hours (% DMSO) [1]: 56.93 % DMSO

CCN(CC)Cc1ccc(O)c2ncccc12 [compound 1096]
Average Cell Viability after 24 Hours (% DMSO) [1]: 67.13 % DMSO

COCc1cc(CN2CCCC2)c(O)c2ncccc12 [compound 1097]
Average Cell Viability after 24 Hours (% DMSO) [1]: 78.08 % DMSO

COCc1cc(CN2CCCCC2)c(O)c2ncccc12 [compound 1098]
Average Cell Viability after 24 Hours (% DMSO) [1]: 68.58 % DMSO

CCOCc1cc(CN2CCCCC2)c(O)c2ncccc12 [compound 1099]
Average Cell Viability after 24 Hours (% DMSO) [1]: 64.22 % DMSO

CCCOCc1cc(CN2CCCCC2)c(O)c2ncccc12 [compound 1100]
Average Cell Viability after 24 Hours (% DMSO) [1]: 56.10 % DMSO

CCCOCc1cc(CN2CCN(C)CC2)c(O)c2ncccc12 [compound 1101]
Average Cell Viability after 24 Hours (% DMSO) [1]: 76.69 % DMSO

CC(C)OCc1cc(CN2CCCCC2)c(O)c2ncccc12 [compound 1102]
Average Cell Viability after 24 Hours (% DMSO) [1]: 68.56 % DMSO

CC1CCN(Cc2cc(COC(C)C)c3cccnc3c2O)CC1 [compound 1103]
Average Cell Viability after 24 Hours (% DMSO) [1]: 58.35 % DMSO

Cc1cc(NC(c2ccccn2)c2ccc3cccnc3c2O)no1 (stereo not shown) [compound 1104]
Average Cell Viability after 24 Hours (% DMSO) [1]: 71.14 % DMSO

Cc1ccc2c(I)cc(I)c(O)c2n1 [compound 1105]
Average Cell Viability after 24 Hours (% DMSO) [1]: 58.63 % DMSO

COc1ccc(-c2cc(O)n(-c3ccc([N+](=O)[O-])cc3)n2)cc1 [compound 1106]
Average Cell Viability after 24 Hours (% DMSO) [1]: 79.49 % DMSO
Average Number of hTERT Transcripts [2]: 68.17

COc1ccc(C2=NN(c3nc4ccccc4s3)C(=O)C2)cc1 [compound 1107]
Average Cell Viability after 24 Hours (% DMSO) [1]: 98.68 % DMSO
Average Number of hTERT Transcripts [2]: 67.06

Oc1cc(-c2ccccc2)nn1-c1nc2ccccc2[nH]1 [compound 1108]
Average Cell Viability after 24 Hours (% DMSO) [1]: 94.50 % DMSO
Average Number of hTERT Transcripts [2]: 79.20

CC1=NN(c2nc3ccccc3s2)C(=O)C1CCC(C)C (stereo not shown) [compound 1109]
Average Cell Viability after 24 Hours (% DMSO) [1]: 67.53 % DMSO
Average Number of hTERT Transcripts [2]: 35.79

Oc1cc(-c2ccc(F)cc2)nn1-c1nc2ccccc2[nH]1 [compound 1110]
Average Cell Viability after 24 Hours (% DMSO) [1]: 100.67 % DMSO
Average Number of hTERT Transcripts [2]: 86.68

CCCCc1c(C)nn(-c2nc3ccccc3[nH]2)c1O [compound 1111]
Average Cell Viability after 24 Hours (% DMSO) [1]: 47.04 % DMSO
Average Number of hTERT Transcripts [2]: 18.99

Oc1c2c(nn1-c1nc3ccccc3[nH]1)CCCC2 [compound 1112]
Average Cell Viability after 24 Hours (% DMSO) [1]: 77.30 % DMSO
Average Number of hTERT Transcripts [2]: 112.20

Oc1c2c(nn1-c1nc3ccccc3s1)CCCC2 [compound 1113]
Average Cell Viability after 24 Hours (% DMSO) [1]: 89.80 % DMSO
Average Number of hTERT Transcripts [2]: 66.98

CCc1c(C)nn(-c2nc3ccccc3s2)c1O [compound 1114]
Average Cell Viability after 24 Hours (% DMSO) [1]: 89.40 % DMSO
Average Number of hTERT Transcripts [2]: 148.58

COc1cc([C@@H]2c3cc4c(cc3C(OC3O[C@@H]5COC(C)O[C@H]5[C@H](O)[C@H]3O)C3COC(=O)[C@@H]32)OCO4)cc(OC)c1O (stereo partly shown) [compound 1224]
Average Number of hTERT Transcripts [2]: 89.52

O=S1(=O)CCC(N2COc3c(cc(Cl)c4cccnc34)C2)C1 (stereo not shown) [compound 1462]
Average Cell Viability after 24 Hours (% DMSO) [1]: 62.26 % DMSO

Cc1ccc2ccc(C(Nc3ccccn3)c3ccccc3Br)c(O)c2n1 (stereo not shown) [compound 1477]
Average Cell Viability after 24 Hours (% DMSO) [1]: 76.49 % DMSO

O=C(CCc1ccccc1)NC(c1ccc(Cl)cc1)c1ccc2cccnc2c1O (stereo not shown) [compound 1478]
Average Cell Viability after 24 Hours (% DMSO) [1]: 72.44 % DMSO

CC(C)C(=O)NC(c1ccccc1)c1cc([N+](=O)[O-])c2cccnc2c1O (stereo not shown) [compound 1479]
Average Cell Viability after 24 Hours (% DMSO) [1]: 68.20 % DMSO

Cc1ccc2ccc(C(Nc3ccccn3)c3ccccc3Cl)c(O)c2n1 (stereo not shown) [compound 1480]
Average Cell Viability after 24 Hours (% DMSO) [1]: 79.43 % DMSO

COc1ccc(C(NC(=O)C(C)C)c2cc([N+](=O)[O-])c3cccnc3c2O)cc1OC (stereo not shown) [compound 1481]
Average Cell Viability after 24 Hours (% DMSO) [1]: 78.30 % DMSO

Oc1ccc(CN2CCN(c3cccc(Cl)c3)CC2)c2cccnc12 [compound 1482]
Average Cell Viability after 24 Hours (% DMSO) [1]: 80.49 % DMSO
